Measured values taken from PMC9234962, “Optimization of Peptide Linker-Based Fluorescent Ligands for the Histamine H1 Receptor” (Journal of Medicinal Chemistry, 2022).
Square brackets hold non-standard residues; d marks the D form. Peptide text beside a SMILES is read from it. * marks the point of attachment. Propanoyl(3-Pip(4-O-2-BnPh)) = O=C(CCN1CCC(Oc2ccccc2Cc2ccccc2)CC1)*

Target: Nluc-H1R (Homo sapiens, UniProt P35367)
Assay: NanoBRET competition binding assay (displacement of 1) on Nluc-H1R expressing HEK293T cells
Details: displacement of 1 (25 nM, KD = 8 nM), whole HEK293T cells, Cheng–Prusoff; for pKi: mean ± SEM, three experiments

Chain of Nluc-H1R (P35367 whole entry): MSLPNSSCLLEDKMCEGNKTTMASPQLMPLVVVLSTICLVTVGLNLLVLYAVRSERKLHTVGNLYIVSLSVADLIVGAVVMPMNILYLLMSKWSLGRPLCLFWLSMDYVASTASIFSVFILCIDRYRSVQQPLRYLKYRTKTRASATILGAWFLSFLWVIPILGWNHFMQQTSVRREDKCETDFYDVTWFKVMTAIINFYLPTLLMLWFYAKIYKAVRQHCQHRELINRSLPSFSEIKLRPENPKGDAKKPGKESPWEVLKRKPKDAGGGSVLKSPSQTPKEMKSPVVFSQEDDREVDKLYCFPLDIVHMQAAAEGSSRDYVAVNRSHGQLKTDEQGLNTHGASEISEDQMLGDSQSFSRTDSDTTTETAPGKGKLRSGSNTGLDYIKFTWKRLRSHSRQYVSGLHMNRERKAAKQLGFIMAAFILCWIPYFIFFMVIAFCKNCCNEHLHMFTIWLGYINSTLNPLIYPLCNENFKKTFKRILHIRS

Row | Ki | pKi | Compound
1 | 0.095 µM | 7.02 ± 0.08 | CC(C)[C@H](NC(=O)CCN1CCC(Oc2ccccc2Cc2ccccc2)CC1)C(=O)N[C@@H](CO)C(=O)N[C@@H](CC(N)=O)C(=O)N[C@H](Cc1ccccc1)C(N)=O [Compound 10f, (S)-N1-((R)-1-Amino-1-oxo-3-phenylpropan-2-yl)-2-((S)-2-((S)-2-(3-(4-(2-benzylphenoxy)piperidin-1-yl)propanamido)-3-methylbutanamido)-3-hydroxypropanamido)succinamide] ({Propanoyl(3-Pip(4-O-2-BnPh))}-VSN[dF]-NH2)
2 | 2.4 µM | 5.62 ± 0.06 | CC(C)[C@H](NC(=O)CCN1CCC(Oc2ccccc2Cc2ccccc2)CC1)C(=O)N[C@@H](CCCCN)C(=O)N[C@@H](C)C(=O)N[C@H](Cc1ccccc1)C(N)=O [Compound 9h, (S)-6-Amino-N-((S)-1-(((R)-1-amino-1-oxo-3-phenylpropan-2-yl)amino)-1-oxopropan-2-yl)-2-((S)-2-(3-(4-(2-benzylphenoxy)piperidin-1-yl)propanamido)-3-methylbutanamido)hexanamide] ({Propanoyl(3-Pip(4-O-2-BnPh))}-VKA[dF]-NH2)
3 | 0.372 µM | 6.43 ± 0.06 | CC(C)[C@H](NC(=O)CCN1CCC(Oc2ccccc2Cc2ccccc2)CC1)C(=O)N[C@H](C(=O)N[C@@H](C)C(=O)N[C@H](Cc1ccccc1)C(N)=O)C(C)C [Compound 9b, (S)-N-((S)-1-(((R)-1-Amino-1-oxo-3-phenylpropan-2-yl)amino)-1-oxopropan-2-yl)-2-((S)-2-(3-(4-(2-benzylphenoxy)piperidin-1-yl)propanamido)-3-methylbutanamido)-3-methylbutanamide] ({Propanoyl(3-Pip(4-O-2-BnPh))}-VVA[dF]-NH2)
4 | 0.309 µM | 6.51 ± 0.07 | CC(C)[C@H](NC(=O)CCN1CCC(Oc2ccccc2Cc2ccccc2)CC1)C(=O)N[C@@H](CO)C(=O)N[C@H](C(=O)N[C@H](Cc1ccccc1)C(N)=O)C(C)C [Compound 10b, (S)-N-((R)-1-Amino-1-oxo-3-phenylpropan-2-yl)-2-((S)-2-((S)-2-(3-(4-(2-benzylphenoxy)piperidin-1-yl)propanamido)-3-methylbutanamido)-3-hydroxypropanamido)-3-methylbutanamide] ({Propanoyl(3-Pip(4-O-2-BnPh))}-VSV[dF]-NH2)
5 | 0.55 µM | 6.26 ± 0.14 | CC(C)[C@H](NC(=O)CCN1CCC(Oc2ccccc2Cc2ccccc2)CC1)C(=O)N[C@@H](CC(=O)O)C(=O)N[C@@H](C)C(=O)N[C@H](Cc1ccccc1)C(N)=O [Compound 9i, (S)-4-(((S)-1-(((R)-1-Amino-1-oxo-3-phenylpropan-2-yl)amino)-1-oxopropan-2-yl)amino)-3-((S)-2-(3-(4-(2-benzylphenoxy)piperidin-1-yl)propanamido)-3-methylbutanamido)-4-oxobutanoic Acid] ({Propanoyl(3-Pip(4-O-2-BnPh))}-VDA[dF]-NH2)
6 | 0.151 µM | 6.82 ± 0.06 | CC(C)[C@H](NC(=O)CCN1CCC(Oc2ccccc2Cc2ccccc2)CC1)C(=O)N[C@@H](CO)C(=O)N[C@@H](C)C(=O)N[C@H](Cc1ccccc1)C(N)=O [Compound 9e, (S)-N-((S)-1-(((S)-1-(((R)-1-Amino-1-oxo-3-phenylpropan-2-yl)amino)-1-oxopropan-2-yl)amino)-3-hydroxy-1-oxo-propan-2-yl)-2-(3-(4-(2-benzylphenoxy)piperidin-1-yl)-propanamido)-3-methylbutanamide] ({Propanoyl(3-Pip(4-O-2-BnPh))}-VSA[dF]-NH2)
7 | 0.501 µM | 6.30 ± 0.07 | CC(C)[C@H](NC(=O)CCN1CCC(Oc2ccccc2Cc2ccccc2)CC1)C(=O)NCC(=O)N[C@@H](C)C(=O)N[C@H](Cc1ccccc1)C(N)=O [Compound 9a, (S)-N-(2-(((S)-1-(((R)-1-Amino-1-oxo-3-phenylpropan-2-yl)amino)-1-oxopropan-2-yl)amino)-2-oxoethyl)-2-(3-(4-(2-benzylphenoxy)piperidin-1-yl)propanamido)-3-methylbutanamide] ({Propanoyl(3-Pip(4-O-2-BnPh))}-VGA[dF]-NH2)
8 | 0.794 µM | 6.10 ± 0.20 | CC(C)[C@H](NC(=O)CCN1CCC(Oc2ccccc2Cc2ccccc2)CC1)C(=O)N[C@@H](Cc1ccccc1)C(=O)N[C@@H](C)C(=O)N[C@H](Cc1ccccc1)C(N)=O [Compound 9c, (S)-N-((S)-1-(((S)-1-(((R)-1-Amino-1-oxo-3-phenylpropan-2-yl)amino)-1-oxopropan-2-yl)amino)-1-oxo-3-phenylpropan-2-yl)-2-(3-(4-(2-benzylphenoxy)piperidin-1-yl)-propanamido)-3-methylbutanamide] ({Propanoyl(3-Pip(4-O-2-BnPh))}-VFA[dF]-NH2)
9 | 0.437 µM | 6.36 ± 0.04 | CC(C)[C@H](NC(=O)CCN1CCC(Oc2ccccc2Cc2ccccc2)CC1)C(=O)N[C@@H](Cc1ccc(O)cc1)C(=O)N[C@@H](C)C(=O)N[C@H](Cc1ccccc1)C(N)=O [Compound 9d, (S)-N-((S)-1-(((S)-1-(((R)-1-Amino-1-oxo-3-phenylpropan-2-yl)amino)-1-oxopropan-2-yl)amino)-3-(4-hydroxyphenyl)-1-oxopropan-2-yl)-2-(3-(4-(2-benzylphenoxy)-piperidin-1-yl)propanamido)-3-methylbutanamide] ({Propanoyl(3-Pip(4-O-2-BnPh))}-VYA[dF]-NH2)

The next lines start with the molecule.

Row | Compound | Ki | pKi
10 | C[C@H](NC(=O)CNC(=O)CCN1CCC(Oc2ccccc2Cc2ccccc2)CC1)C(=O)N[C@@H](C)C(=O)N[C@H](Cc1ccccc1)C(N)=O [Compound 8b, (S)-N-((R)-1-Amino-1-oxo-3-phenylpropan-2-yl)-2-((S)-2-(2-(3-(4-(2-benzylphenoxy)piperidin-1-yl)propanamido)acetamido)propanamido)propanamide] ({Propanoyl(3-Pip(4-O-2-BnPh))}-GAA[dF]-NH2) | 0.513 µM | 6.29 ± 0.21
11 | C[C@H](NC(=O)[C@H](C)NC(=O)[C@H](Cc1ccc(O)cc1)NC(=O)CCN1CCC(Oc2ccccc2Cc2ccccc2)CC1)C(=O)N[C@H](Cc1ccccc1)C(N)=O [Compound 8e, (S)-N-((S)-1-(((S)-1-(((R)-1-Amino-1-oxo-3-phenylpropan-2-yl)amino)-1-oxopropan-2-yl)amino)-1-oxopropan-2-yl)-2-(3-(4-(2-benzylphenoxy)piperidin-1-yl)propanamido)-3-(4-hydroxyphenyl)propanamide] ({Propanoyl(3-Pip(4-O-2-BnPh))}-YAA[dF]-NH2) | 1.18 µM | 5.93 ± 0.17
12 | C[C@H](NC(=O)CCN1CCC(Oc2ccccc2Cc2ccccc2)CC1)C(=O)N[C@@H](C)C(=O)N[C@@H](C)C(=O)N[C@H](Cc1ccccc1)C(N)=O [Compound 8a, (S)-N-((R)-1-Amino-1-oxo-3-phenylpropan-2-yl)-2-((S)-2-((S)-2-(3-(4-(2-benzylphenoxy)piperidin-1-yl)-propana-mido)propanamido)propanamido)propanamide] ({Propanoyl(3-Pip(4-O-2-BnPh))}-AAA[dF]-NH2) | 0.912 µM | 6.04 ± 0.16
13 | C[C@H](NC(=O)[C@H](C)NC(=O)[C@H](CC(=O)O)NC(=O)CCN1CCC(Oc2ccccc2Cc2ccccc2)CC1)C(=O)N[C@H](Cc1ccccc1)C(N)=O [Compound 8j, (S)-4-(((S)-1-(((S)-1-(((R)-1-Amino-1-oxo-3-phenylpropan-2-yl)amino)-1-oxopropan-2-yl)amino)-1-oxopropan-2-yl)amino)-3-(3-(4-(2-benzylphenoxy)piperidin-1-yl)propanamido)-4-oxobutanoic Acid] ({Propanoyl(3-Pip(4-O-2-BnPh))}-DAA[dF]-NH2) | 1.02 µM | 5.99 ± 0.24
14 | C[C@H](NC(=O)[C@H](C)NC(=O)[C@H](CO)NC(=O)CCN1CCC(Oc2ccccc2Cc2ccccc2)CC1)C(=O)N[C@H](Cc1ccccc1)C(N)=O [Compound 8f, (S)-N-((S)-1-(((S)-1-(((R)-1-Amino-1-oxo-3-phenylpropan-2-yl)amino)-1-oxopropan-2-yl)amino)-1-oxopropan-2-yl)-2-(3-(4-(2-benzylphenoxy)piperidin-1-yl)propanamido)-3-hydroxypropanamide] ({Propanoyl(3-Pip(4-O-2-BnPh))}-SAA[dF]-NH2) | 0.407 µM | 6.39 ± 0.15
15 | C[C@H](NC(=O)[C@H](C)NC(=O)[C@H](Cc1ccccc1)NC(=O)CCN1CCC(Oc2ccccc2Cc2ccccc2)CC1)C(=O)N[C@H](Cc1ccccc1)C(N)=O [Compound 8d, (S)-N-((S)-1-(((S)-1-(((R)-1-Amino-1-oxo-3-phenylpropan-2-yl)amino)-1-oxopropan-2-yl)amino)-1-oxopropan-2-yl)-2-(3-(4-(2-benzylphenoxy)piperidin-1-yl)propanamido)-3-phenylpropanamide] ({Propanoyl(3-Pip(4-O-2-BnPh))}-FAA[dF]-NH2) | 1.32 µM | 5.88 ± 0.21
16 | C[C@H](NC(=O)[C@H](C)NC(=O)[C@H](CCCCN)NC(=O)CCN1CCC(Oc2ccccc2Cc2ccccc2)CC1)C(=O)N[C@H](Cc1ccccc1)C(N)=O [Compound 8i, (S)-6-Amino-N-((S)-1-(((S)-1-(((R)-1-amino-1-oxo-3-phenylpropan-2-yl)amino)-1-oxopropan-2-yl)-amino)-1-oxopropan-2-yl)-2-(3-(4-(2-benzylphenoxy)piperidin-1-yl)-propanamido)hexanamide] ({Propanoyl(3-Pip(4-O-2-BnPh))}-KAA[dF]-NH2) | 1.62 µM | 5.79 ± 0.18
17 | C[C@H](NC(=O)[C@H](C)NC(=O)[C@H](Cc1cnc[nH]1)NC(=O)CCN1CCC(Oc2ccccc2Cc2ccccc2)CC1)C(=O)N[C@H](Cc1ccccc1)C(N)=O [Compound 8h, (S)-N-((S)-1-(((S)-1-(((R)-1-Amino-1-oxo-3-phenylpropan-2-yl)amino)-1-oxopropan-2-yl)amino)-1-oxopropan-2-yl)-2-(3-(4-(2-benzylphenoxy)piperidin-1-yl)propanamido)-3-(1H-imidazol-5-yl)propanamide] ({Propanoyl(3-Pip(4-O-2-BnPh))}-HAA[dF]-NH2) | 0.933 µM | 6.03 ± 0.13
